Test results from the NIST ThermoML archive (doi:10.1016/j.jct.2015.06.036).

Experiment: xn = mol fraction of the nth substance listed
Conditions: 101 kPa, Liquid; for viscosity: Falling or rolling sphere viscometry; for speed of sound: Sing-around technique in a fixed-path interferometer; for mass density: Vibrating tube method

CCCCn1cc[n+](C)c1.F[B-](F)(F)F [1-butyl-3-methylimidazolium tetrafluoroborate] + CO
Conditions | mass density [kg/m3] | speed of sound [m/s] | viscosity [mPa·s]
278.15 K, x1 = 0.0501 | 893 | 1239 | 1.07
278.15 K, x1 = 0.0999 | 954.2 | 1294 | 1.7
278.15 K, x1 = 0.1498 | 999.7 | 1341 | 2.36
278.15 K, x1 = 0.2 | 1035.5 | 1383 | 3.35
278.15 K, x1 = 0.2999 | 1087.2 | 1447 | 6.22
278.15 K, x1 = 0.4008 | 1122.5 | 1493 | 11.1
278.15 K, x1 = 0.4995 | 1147.9 | 1527 | 20.6
278.15 K, x1 = 0.5999 | 1167.9 | 1552 | 35.3
278.15 K, x1 = 0.6991 | 1183.3 | 1573 | 60.2
278.15 K, x1 = 0.8006 | 1196.4 | 1589 | 108
278.15 K, x1 = 0.8494 | 1201.6 | 1596 | 143
278.15 K, x1 = 0.9006 | 1206.9 | 1603 | 196
278.15 K, x1 = 0.9501 | 1211.4 | 1611 | 264
278.15 K, x1 = 1 | 1215.9 | 1615 | 361
288.15 K, x1 = 0.0501 | 884 | 1209 | 0.905
288.15 K, x1 = 0.0999 | 945.5 | 1266 | 1.4
288.15 K, x1 = 0.1498 | 991.2 | 1315 | 1.91
288.15 K, x1 = 0.2 | 1027.2 | 1356 | 2.65
288.15 K, x1 = 0.2999 | 1079.1 | 1422 | 4.73
288.15 K, x1 = 0.4008 | 1114.6 | 1468 | 8.1
288.15 K, x1 = 0.4995 | 1140.2 | 1502 | 14.5
288.15 K, x1 = 0.5999 | 1160.3 | 1527 | 23.7
288.15 K, x1 = 0.6991 | 1175.9 | 1548 | 38.2
288.15 K, x1 = 0.8006 | 1189 | 1564 | 64.8
288.15 K, x1 = 0.8494 | 1194.3 | 1571 | 82.5
288.15 K, x1 = 0.9006 | 1199.6 | 1578 | 110
288.15 K, x1 = 0.9501 | 1204 | 1586 | 143
288.15 K, x1 = 1 | 1208.5 | 1590 | 186
298.15 K, x1 = 0.0501 | 875 | 1179 | 0.779
298.15 K, x1 = 0.0999 | 936.8 | 1238 | 1.18
298.15 K, x1 = 0.1498 | 982.8 | 1288 | 1.58
298.15 K, x1 = 0.2 | 1018.9 | 1331 | 2.16
298.15 K, x1 = 0.2999 | 1071 | 1397 | 3.73
298.15 K, x1 = 0.4008 | 1106.8 | 1443 | 6.18
298.15 K, x1 = 0.4995 | 1132.5 | 1477 | 10.7
298.15 K, x1 = 0.5999 | 1152.8 | 1503 | 16.9
298.15 K, x1 = 0.6991 | 1168.5 | 1524 | 25.8
298.15 K, x1 = 0.8006 | 1181.7 | 1540 | 41.5
298.15 K, x1 = 0.8494 | 1187.1 | 1547 | 51.6
298.15 K, x1 = 0.9006 | 1192.4 | 1554 | 66.9
298.15 K, x1 = 0.9501 | 1196.9 | 1562 | 83.8
298.15 K, x1 = 1 | 1201.3 | 1565 | 105
308.15 K, x1 = 0.0501 | 866 | 1150 | 0.679
308.15 K, x1 = 0.0999 | 928.1 | 1211 | 1.01
308.15 K, x1 = 0.1498 | 974.3 | 1262 | 1.33
308.15 K, x1 = 0.2 | 1010.6 | 1305 | 1.8
308.15 K, x1 = 0.2999 | 1063.1 | 1372 | 3.02
308.15 K, x1 = 0.4008 | 1099 | 1418 | 4.88
308.15 K, x1 = 0.4995 | 1124.9 | 1454 | 8.17
308.15 K, x1 = 0.5999 | 1145.3 | 1479 | 12.7
308.15 K, x1 = 0.6991 | 1161.1 | 1500 | 18.5
308.15 K, x1 = 0.8006 | 1174.5 | 1517 | 28.4
308.15 K, x1 = 0.8494 | 1179.9 | 1524 | 34.4
308.15 K, x1 = 0.9006 | 1185.3 | 1531 | 43.3
308.15 K, x1 = 0.9501 | 1189.8 | 1538 | 53.3
308.15 K, x1 = 1 | 1194.2 | 1542 | 64.8
318.15 K, x1 = 0.0501 | 857 | 1121 | 0.6
318.15 K, x1 = 0.0999 | 919.4 | 1184 | 0.873
318.15 K, x1 = 0.1498 | 965.8 | 1236 | 1.14
318.15 K, x1 = 0.2 | 1002.4 | 1280 | 1.52
318.15 K, x1 = 0.2999 | 1055.1 | 1348 | 2.51
318.15 K, x1 = 0.4008 | 1091.3 | 1394 | 3.96
318.15 K, x1 = 0.4995 | 1117.4 | 1430 | 6.45
318.15 K, x1 = 0.5999 | 1137.9 | 1456 | 9.83
318.15 K, x1 = 0.6991 | 1153.8 | 1477 | 13.7
318.15 K, x1 = 0.8006 | 1167.3 | 1493 | 20.4
318.15 K, x1 = 0.8494 | 1172.7 | 1501 | 24.2
318.15 K, x1 = 0.9006 | 1178.2 | 1508 | 30
318.15 K, x1 = 0.9501 | 1182.7 | 1515 | 36
318.15 K, x1 = 1 | 1187.2 | 1519 | 42.7

CCn1cc[n+](C)c1.F[B-](F)(F)F [1-ethyl-3-methylimidazolium tetrafluoroborate] + CO
Conditions | mass density [kg/m3] | speed of sound [m/s] | viscosity [mPa·s]
278.15 K, x1 = 0.0499 | 896.8 | 1233 | 0.998
278.15 K, x1 = 0.0998 | 965.1 | 1283 | 1.43
278.15 K, x1 = 0.1498 | 1019.5 | 1336 | 1.92
278.15 K, x1 = 0.1998 | 1062.4 | 1384 | 2.52
278.15 K, x1 = 0.3002 | 1127.9 | 1465 | 4.08
278.15 K, x1 = 0.4004 | 1174.8 | 1523 | 6.45
278.15 K, x1 = 0.5001 | 1209.6 | 1565 | 9.84
278.15 K, x1 = 0.6004 | 1237.2 | 1597 | 15.3
278.15 K, x1 = 0.6987 | 1258.7 | 1623 | 24.6
278.15 K, x1 = 0.8005 | 1277.4 | 1644 | 38.9
278.15 K, x1 = 0.8486 | 1284.8 | 1653 | 47.9
278.15 K, x1 = 0.8987 | 1292.3 | 1661 | 61.5
278.15 K, x1 = 0.9476 | 1298.6 | 1669 | 76.5
278.15 K, x1 = 1 | 1305.3 | 1677 | 101
288.15 K, x1 = 0.0499 | 887.8 | 1204 | 0.848
288.15 K, x1 = 0.0998 | 956.3 | 1259 | 1.19
288.15 K, x1 = 0.1498 | 1010.9 | 1313 | 1.57
288.15 K, x1 = 0.1998 | 1053.8 | 1361 | 2.03
288.15 K, x1 = 0.3002 | 1119.4 | 1441 | 3.24
288.15 K, x1 = 0.4004 | 1166.5 | 1499 | 5.01
288.15 K, x1 = 0.5001 | 1201.4 | 1540 | 7.49
288.15 K, x1 = 0.6004 | 1229.1 | 1572 | 11.3
288.15 K, x1 = 0.6987 | 1250.7 | 1598 | 17.7
288.15 K, x1 = 0.8005 | 1269.5 | 1619 | 26.8
288.15 K, x1 = 0.8486 | 1276.9 | 1628 | 32.3
288.15 K, x1 = 0.8987 | 1284.5 | 1636 | 40.2
288.15 K, x1 = 0.9476 | 1290.9 | 1644 | 48.7
288.15 K, x1 = 1 | 1297.6 | 1653 | 62
298.15 K, x1 = 0.0499 | 878.7 | 1176 | 0.732
298.15 K, x1 = 0.0998 | 947.5 | 1233 | 1.01
298.15 K, x1 = 0.1498 | 1002.2 | 1289 | 1.32
298.15 K, x1 = 0.1998 | 1045.3 | 1337 | 1.69
298.15 K, x1 = 0.3002 | 1111 | 1418 | 2.66
298.15 K, x1 = 0.4004 | 1158.2 | 1475 | 4.03
298.15 K, x1 = 0.5001 | 1193.3 | 1516 | 5.91
298.15 K, x1 = 0.6004 | 1221.1 | 1548 | 8.69
298.15 K, x1 = 0.6987 | 1242.8 | 1575 | 13.3
298.15 K, x1 = 0.8005 | 1261.7 | 1596 | 19.5
298.15 K, x1 = 0.8486 | 1269.2 | 1605 | 22.9
298.15 K, x1 = 0.8987 | 1276.8 | 1613 | 28
298.15 K, x1 = 0.9476 | 1283.2 | 1621 | 33.2
298.15 K, x1 = 1 | 1290 | 1629 | 41
308.15 K, x1 = 0.0499 | 869.6 | 1147 | 0.642
308.15 K, x1 = 0.0998 | 938.7 | 1208 | 0.872
308.15 K, x1 = 0.1498 | 993.6 | 1265 | 1.13
308.15 K, x1 = 0.1998 | 1036.8 | 1314 | 1.44
308.15 K, x1 = 0.3002 | 1102.7 | 1394 | 2.23
308.15 K, x1 = 0.4004 | 1150 | 1451 | 3.33
308.15 K, x1 = 0.5001 | 1185.3 | 1493 | 4.79
308.15 K, x1 = 0.6004 | 1213.2 | 1525 | 6.91
308.15 K, x1 = 0.6987 | 1235 | 1551 | 10.4
308.15 K, x1 = 0.8005 | 1254 | 1573 | 14.9
308.15 K, x1 = 0.8486 | 1261.5 | 1581 | 17.1
308.15 K, x1 = 0.8987 | 1269.1 | 1589 | 20.5
308.15 K, x1 = 0.9476 | 1275.6 | 1598 | 23.8
308.15 K, x1 = 1 | 1282.4 | 1606 | 28.8
318.15 K, x1 = 0.0499 | 860.5 | 1119 | 0.57
318.15 K, x1 = 0.0998 | 929.8 | 1182 | 0.772
318.15 K, x1 = 0.1498 | 984.9 | 1241 | 0.979
318.15 K, x1 = 0.1998 | 1028.3 | 1290 | 1.24
318.15 K, x1 = 0.3002 | 1094.4 | 1371 | 1.9
318.15 K, x1 = 0.4004 | 1141.9 | 1428 | 2.81
318.15 K, x1 = 0.5001 | 1177.3 | 1470 | 3.98
318.15 K, x1 = 0.6004 | 1205.4 | 1502 | 5.65
318.15 K, x1 = 0.6987 | 1227.2 | 1528 | 8.37
318.15 K, x1 = 0.8005 | 1246.3 | 1550 | 11.7
318.15 K, x1 = 0.8486 | 1253.9 | 1559 | 13.2
318.15 K, x1 = 0.8987 | 1261.6 | 1567 | 15.7
318.15 K, x1 = 0.9476 | 1268 | 1575 | 17.8
318.15 K, x1 = 1 | 1274.9 | 1583 | 21.2
